Reference: patent US11286268B1, “EIF4E-inhibiting compounds and methods” (EFFECTOR THERAPEUTICS, INC., priority 2019, dated 2022)
pIC50: −log10 of the molar value. Read-outs that look alike come from different tables or passages of the source.

Biological target: recombinant eIF4E (Homo sapiens (Human), UniProt P06730)
Experiment: Fluorescence polarization competition assay for eIF4E binding potency
Procedure, shortened: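 FP readout; IC50 fit from 8-point, 3-fold series. 75 nM eIF4E + 20 nM ATTO-550-labelled m7GDP probe, Tris pH 7.5/NaCl/DTT/Tween buffer, 1% DMSO final. 30 min RT equilibration, light-protected.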

[1] = inhibition of eIF4E/EDA-m7GDP-ATTO-550 binding, calculated IC50 values, Table 4B, read-out: IC50
[2] = fluorescence polarization competition, 75 nM recombinant eIF4E, 20 nM EDA-m7GDP-ATTO-550, IC50 class, read-out: elF4E FP
[3] = inhibition of eIF4E/EDA-m7GDP-ATTO-550 binding by 50%, Table 4B calculated values, read-out: IC50

Sequence of recombinant eIF4E (P06730 whole entry): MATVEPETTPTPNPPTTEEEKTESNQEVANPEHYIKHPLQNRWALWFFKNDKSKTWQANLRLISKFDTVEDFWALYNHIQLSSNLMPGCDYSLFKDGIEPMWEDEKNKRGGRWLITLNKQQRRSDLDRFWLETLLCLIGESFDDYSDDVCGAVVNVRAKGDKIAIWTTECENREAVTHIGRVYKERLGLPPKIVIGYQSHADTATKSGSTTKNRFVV

Structure (SMILES)	pIC50 [1]	pIC50 [2]	pIC50 [3]
Cc1cc(-c2cc(Cl)ccc2OCCn2c(C)nc3c(C#N)nc(C4CC4)c(C)c3c2=O)c2scc(C(=O)O)c2n1 [compound 1964]	7.30		
Cc1nc2cc(OC(F)F)c(C#N)c(C#N)c2c(=O)n1CCOc1ccc(Cl)cc1-c1ccnc2c(C(=O)O)csc12 [compound 538]		> 7.30	7.65
Cc1nc2cncc(C#N)c2c(=O)n1CCOc1ccc(Cl)cc1-c1cccc(C(=O)O)c1 [compound 1982]	7.44		
Cc1cc(-c2cc(Cl)ccc2OCCn2c(C)nc3cc(C(F)(F)F)c(N4CCC(C(F)(F)F)CC4)nc3c2=O)c2scc(C(=O)O)c2n1 [compound 803]		6.00 to 7.30	6.79
Cc1nc2cc(C(F)(F)F)cc(C#N)c2c(=O)n1CCOc1ccc(Cl)cc1-c1ccnc(C(=O)NS(C)(=O)=O)c1 [compound 1372]	7.09		
Cc1nc2cc(C(F)(F)F)cc(C#N)c2c(=O)n1CCOc1ccc(Cl)cc1-c1cc(CCN)nc2c(C(=O)O)csc12 [compound 1374]	7.25		
CSCc1cc(F)c2cc(C)n(CCOc3ccc(Cl)cc3-c3ccnc4c(C(=O)O)csc34)c(=O)c2c1C#N [compound 534]		> 7.30	7.52
Cc1nc2cc(C(F)(F)F)c(N3CCN(C4COC4)CC3)c(C#N)c2c(=O)n1CCOc1ccc(Cl)cc1-c1ccnc2c(C(=O)O)csc12 [compound 1241]	7.76	> 7.30	
Cc1nc2cnc(C3CC3)c(C#N)c2c(=O)n1CCOc1ccc(Cl)cc1-c1ccc(Cl)c2c(C(=O)O)csc12 [compound 773]		> 7.30	7.99
Cc1nc2cnc(N3CCN(C)C(CF)C3)c(C#N)c2c(=O)n1CC#Cc1ccc(Cl)cc1-c1ccnc2c(C(=O)O)csc12 (stereo not drawn) [compound 1459]	7.68		
Cc1cc(-c2cc(Cl)ccc2OCCn2c(C)nc3c(C(F)(F)F)cc(N4CCN(C)CC4)nc3c2=O)c2scc(C(=O)O)c2n1 [compound 677]		> 7.30	8.26
Cc1nc2cnc(OC3CCNCC3)c(C#N)c2c(=O)n1CCOc1ccc(Cl)cc1-c1ccnc2c(C(=O)O)csc12 [compound 819]		> 7.30	7.55
Cc1nc2c(OC(F)(F)F)ccc(C#N)c2c(=O)n1CCOc1ccc(Cl)cc1-c1ccnc2c(C(=O)O)csc12 [compound 313]		> 7.30	7.46
Cc1cc(-c2cc(Cl)ccc2OCCn2c(C)nc3cc(C(F)(F)F)c(CN(C)C)c(C#N)c3c2=O)c2scc(C(=O)NS(C)(=O)=O)c2n1 [compound 568]		> 7.30	7.85
Cc1nc2cnccc2c(=O)n1CCOc1ccc(Cl)cc1-c1cccc(C(=O)O)c1 [compound 1]		6.00 to 7.30	6.55
COc1cc(-c2cc(Cl)ccc2OCCn2c(C)nc3cc(C(F)(F)F)c(N4CCN(C)CC4)c(C#N)c3c2=O)cc(C(=O)O)n1 [compound 1224]		6.00 to 7.30	
Cc1nc2c(F)cc(F)c(C#N)c2c(=O)n1CCOc1ccc(Cl)cc1-c1ccnc2c(C(=O)O)csc12 [compound 241]		> 7.30	8.31
Cc1cc(-c2cc(Cl)ccc2OCCn2c(C)nc3cc(C(F)(F)F)c(-c4cn(C)nc4C)c(C#N)c3c2=O)c2scc(C(=O)O)c2n1 [compound 1031]		> 7.30	7.94
Cc1nc2cnc(N(C)C3CCN(C4CC(F)(F)C4)CC3)c(C#N)c2c(=O)n1CC#Cc1ccc(Cl)cc1-c1ccnc2c(C(=O)NS(=O)(=O)c3ccncc3)csc12 [compound 1829]	8.20		
CCN(c1ncc2nc(C)n(CC#Cc3ccc(Cl)cc3-c3ccnc4c(C(=O)NS(=O)(=O)C5CC5)csc34)c(=O)c2c1C#N)C1CCN(C2COC2)CC1 [compound 1749]	7.79		
Cc1nc2cnc(N(C)C3CCN(CC(F)F)CC3)c(C#N)c2c(=O)n1CC#Cc1ccc(Cl)cc1-c1ccnc2c(C(=O)NO)csc12 [compound 1560]	8.20		
Cc1nc2cnc(N3CC4(CN(CC(F)(F)F)C4)C3)c(C#N)c2c(=O)n1CCOc1ccc(Cl)cc1-c1ccnc2c(C(=O)O)csc12 [compound 840]		> 7.30	7.98
Cc1sc2c(-c3cc(Cl)ccc3OCCn3c(C)nc4cc(C(F)(F)F)c(N5CCN(C)CC5)c(C#N)c4c3=O)cc(CF)nc2c1C(=O)O [compound 1237]	8.18	> 7.30	
COC(=O)c1csc2c(-c3cc(Cl)ccc3OCCn3c(C)nc4cc(C(F)(F)F)c(N5CCN(C6CC6)CC5)c(C#N)c4c3=O)ccnc12 [compound 1206]	7.49	> 7.30	
Cc1nc2cnc(N(C)C3CCN(CC(F)(F)C4CC4)CC3)c(C#N)c2c(=O)n1CC#Cc1ccc(Cl)cc1-c1ccnc2c(C(=O)O)csc12 [compound 1125]		> 7.30	7.84
Cc1nc2cnc(N(C)C3CCN(C4CC(F)(F)C4)CC3)c(C#N)c2c(=O)n1CCOc1ccc(Cl)cc1-c1ccnc2c(C(=O)O)csc12 [compound 1477]	7.74		
Cc1nc2cnc(C3CCN(CC(F)(F)F)CC3)c(C#N)c2c(=O)n1CCOc1ccc(Cl)cc1-c1ccnc2c(C(=O)O)csc12 [compound 1117]		> 7.30	7.87

Structure (SMILES)	pIC50 [1]	pIC50 [2]	pIC50 [3]
C#Cc1nc2c(=O)n(CCOc3ccc(Cl)cc3-c3cc(C)nc4c(C(=O)O)csc34)c(C)nc2cc1C(F)(F)F [compound 783]		> 7.30	7.83
Cc1nc2cc(C(F)(F)F)c(F)c(C#N)c2c(=O)n1CCOc1ccc(Cl)cc1-c1ccnc2c(C(=O)O)csc12 [compound 246]		> 7.30	7.37
Cc1nc2cc(C(F)(F)F)c(CN(C)C)c(C#N)c2c(=O)n1CCOc1cc(F)c(Cl)cc1-c1ccnc2c(C(=O)O)csc12 [compound 503]		> 7.30	8.06
Cc1nc2cc(C(F)(F)F)cc(C#N)c2c(=O)n1C/C=C/c1ccc(Cl)cc1-c1ccnc2c(C(=O)O)csc12 [compound 255]		6.00 to 7.30	7.11
Cc1nc2cc(C(F)(F)F)cc(C#N)c2c(=O)n1CCOc1ccc(Cl)cc1-c1ccnc2c(C(=O)O)csc12 [Compound 272]		> 7.30	7.64
Cc1nc(N2CCN(C)C3CC32)c(C#N)c2c(=O)n(CCOc3ccc(Cl)cc3-c3ccnc4c(C(=O)O)csc34)c(C)nc12 (stereo not drawn) [compound 603]		> 7.30	7.93
Cc1cc(-c2cc(Cl)ccc2OCCn2c(C)nc3cnc(N(C)C)c(C#N)c3c2=O)c2scc(C(=O)O)c2n1 [compound 791]		> 7.30	8.44
Cc1cc(-c2cc(Cl)ccc2OCCn2c(C)nc3cnc(N4CC(N(C)C)C4)c(C#N)c3c2=O)c2sc(C)c(C(=O)O)c2n1 [compound 1091]		6.00 to 7.30	7.04
Cc1nc2cnc(N(C)C3CCN(CC(F)(F)C(F)F)CC3)c(C#N)c2c(=O)n1CC#Cc1ccc(Cl)cc1-c1ccnc2c(C(=O)NS(C)(=O)=O)csc12 [compound 1703]	8.22		
CCN(c1ncc2nc(C)n(CC#Cc3ccc(Cl)cc3-c3ccnc4c(C(=O)NS(=O)(=O)c5cccnc5)csc34)c(=O)c2c1C#N)C1CCN(C2CC(F)(F)C2)CC1 [compound 1839]	7.46		
N#Cc1cc2c(=O)n(CCOc3ccc(Cl)cc3-c3cc(CCO)cc(C(=O)O)c3)cnc2cn1 [compound 106]		< 6.00	5.86
Cc1nc2cnc(N(C)C3CCN(C4(COC(F)F)CC4)CC3)c(C#N)c2c(=O)n1CC#Cc1ccc(Cl)cc1-c1ccnc2c(C(=O)O)csc12 [compound 1504]	7.87		
Cc1nc2cnc(N(C)C3CCN([C@H]4C[C@@H]4C(F)(F)F)CC3)c(C#N)c2c(=O)n1CC#Cc1ccc(Cl)cc1-c1ccnc2c(C(=O)O)csc12 [compound 1724]	8.39		
Cc1cc(-c2cc(Cl)ccc2OCCn2c(C)nc3cnc(CCF)c(C#N)c3c2=O)c2scc(C(=O)O)c2n1 [compound 1064]		> 7.30	7.79
Cc1nc2cnc(N(C)C3CCN(CC(F)(F)F)CC3)c(C#N)c2c(=O)n1CC#Cc1ccc(Cl)cc1-c1ccnc2c(C(=O)NS(=O)(=O)CF)csc12 [compound 1669]	8.04		
Cc1nc2cc(C(F)(F)F)c(N3CC4(C3)CN(C3CC3)C4)c(C#N)c2c(=O)n1CC#Cc1ccc(Cl)cc1-c1ccnc2c(C(=O)O)csc12 [compound 1570]	7.64		
Cc1cc(-c2cc(Cl)ccc2OCCn2c(C)nc3cc(C(F)(F)F)c(-c4ccccc4C(N)=O)nc3c2=O)c2scc(C(=O)O)c2n1 [345b]			7.60
Cc1nc2cc(F)c(F)c(C#N)c2c(=O)n1CCOc1ccc(Cl)cc1-c1ccnc2c(-c3nnn[nH]3)csc12 [compound 306]		6.00 to 7.30	7.04
Cc1sc2c(-c3cc(Cl)ccc3OCCn3c(C)nc4cc(C(F)(F)F)c(CC5CN(C)C5)c(C#N)c4c3=O)ccnc2c1C(=O)O [compound 1283]	7.47		
Cc1cc(-c2cc(Cl)ccc2OCCn2c(C)nc3cc(C)c(CN(C)C)c(C#N)c3c2=O)c2scc(C(=O)O)c2n1 [compound 1379]	7.74		
Cc1nc2cnc(N(C)C3CCN(C(C)(C)C(F)(F)F)CC3)c(C#N)c2c(=O)n1CCOc1ccc(Cl)cc1-c1ccnc2c(C(=O)O)csc12 [compound 1514]	7.29		
Cc1nc2cnc(N3CCN(CC4CC4)CC3)c(C#N)c2c(=O)n1CC#Cc1ccc(Cl)cc1-c1ccnc2c(C(=O)O)csc12 [compound 895]		> 7.30	7.64
Cc1cccc(-c2nc(C)c3nc(C)n(CCOc4ccc(Cl)cc4-c4cc(C)nc5c(C(=O)O)csc45)c(=O)c3c2C#N)c1 [compound 478]		> 7.30	
COc1c(CN(C)C)cc2nc(C)n(CCOc3ccc(Cl)cc3-c3cc(C)nc4c(C(=O)O)csc34)c(=O)c2c1C#N [compound 369]		> 7.30	8.88
Cc1nc2cc(C(F)(F)F)cc(C#N)c2c(=O)n1CCOc1ccc(Cl)cc1-c1ncnc2c(C(=O)O)csc12 [compound 215]		6.00 to 7.30	
Cn1ccc2c(=O)n(CCOc3ccc(Cl)cc3-c3cccc(C(=O)O)c3)cnc21 [compound 68]		< 6.00	4.19
